Measurements as given in USRE47193E1, “Selectively substituted quinoline compounds” (EISAI R&D MANAGEMENT CO., LTD., priority 2013, dated 2019).

Assays:
Human TLR7/8 = assay: Human PBMC cell-based assay, TLR7/8 stimulus (RNA-Ig), cytokine ELISA; details: primary human PBMC assay, TLR7/8 potency; ligand not given; read-out: Human PBMCs IC50
Experimental: Human PBMC Cell-Based Assay. Human peripheral blood mononuclear cells (PBMC) were isolated from freshly-drawn heparinized (10 USP units/ml, Hospira, Lakeforest, Ill.) healthy donor whole blood by density gradient (Histopaque® 1077, Sigma, Inc., St. Louis, Mo.). Briefly, 25 ml blood was diluted with 15 ml PBS (without Ca^2+, Mg^2+) in a 50 ml conical tube, and 12 ml Histopaque was underlaid using a spinal needle. Tubes were centrifuged for 45 minutes at 1200 rpm (350×g), and PBMC were collected from the buffy coat. Cells were then washed twice in PBS, and red blood cells were lysed by suspension in 5 ml ammonium chloride solution (1× Red Blood Cell Lysis Buffer, eBioscience) for 5 minutes at room temperature. After a final wash in PBS, PBMC were resuspended at a final concentration of 2×10^6/ml in RPMI-1640 media with L-glutamine (Invitrogen) and supplemented with 25 mM HEPES (Mediatech, Inc, Manassas Va.), 10% fetal bovine serum (HyClone, Logan, Utah), and Penicillin-Streptomycin-Glutamine (Mediatech) and plated at 100 ul/well (2×10^5 cells/well) in tissue culture treated 96-well plates (Falcon).
Antagonist compounds solubilized and serial diluted in 100% DMSO were added in triplicate to cells to yield a final concentration of 0.1% DMSO (v/v). Hydroxychloroquine (Acros Organics) solubilized and serial diluted in PBS was added in triplicate to cells. PBMC were incubated with antagonist compounds or HCQ for 30 minutes at 37° C., 5% CO2 before adding various TLR agonist reagents in 100 ul complete media per well as follows (final concentrations indicated): R848 (Resiquimod; GLSynthesis, Worcester, Mass.) at 1 uM for TLR7 and TLR8, LPS (Sigma) at 10 ng/ml for TLR4, and CpG-2216 (InvivoGen) at 5 ug/ml for TLR9. To prepare a TLR7/8 agonist that mimics RNA-containing auto-antibody immune complexes in lupus patients, a 26-mer RNA with a sequence derived from human U1 snRNA stem loop IV [(sequence: […]-[…] (SEQ ID NO: 2) with phosphorothioate backbone] was synthesized (Dharmacon, Inc., Lafayette, Colo.), which has been shown previously to be a potent TLR7 and TLR8 agonist. This RNA molecule was diluted to 2.5 μM in serum-free RPMI, and mouse anti-human single stranded DNA monoclonal antibody (MAB3034, Millipore, Inc., Billerica, Mass.), which also cross-reacts with RNA, was added at a 1:25 dilution or at 1 ug/ml. The resulting “RNA-Ig” stimulus was incubated at room temperature for 15-30 minutes before adding to cells. PBMC were incubated with the various TLR agonists for 20 hours at 37° C., 5% CO2. Cell culture supernatants were collected, and levels of various human cytokines were assessed as indicated by standard ELISA procedure according to the manufacturer's recommended protocol (BD Biosciences, Inc., San Diego, Calif.). In a subsequent assay (Table 6) the ability of ER-899742 to block stimulation of normal PBMC by various TLR7/8 ligands, but not DNA-mediated activation of TLR9, was examined. In this assay cells were plated at 1×10^5 cells/well in 100 ul in 96-well plates.

mouse TLR7 = target: T1, mouse TLR7 (Mus musculus, UniProt P58681); assay: Short-term in vivo (STIV) assay: oral dosing, R848 s.c., plasma IL-6; design: female BALB/c mice (Jackson Labs, Bar Harbor, Me.) were dosed by oral gavage; tissue Jackson Labs; host or cells: living female BALB/c mice; plasma IL-6 after s.c. R848
T1 sequence (P58681 27-1050): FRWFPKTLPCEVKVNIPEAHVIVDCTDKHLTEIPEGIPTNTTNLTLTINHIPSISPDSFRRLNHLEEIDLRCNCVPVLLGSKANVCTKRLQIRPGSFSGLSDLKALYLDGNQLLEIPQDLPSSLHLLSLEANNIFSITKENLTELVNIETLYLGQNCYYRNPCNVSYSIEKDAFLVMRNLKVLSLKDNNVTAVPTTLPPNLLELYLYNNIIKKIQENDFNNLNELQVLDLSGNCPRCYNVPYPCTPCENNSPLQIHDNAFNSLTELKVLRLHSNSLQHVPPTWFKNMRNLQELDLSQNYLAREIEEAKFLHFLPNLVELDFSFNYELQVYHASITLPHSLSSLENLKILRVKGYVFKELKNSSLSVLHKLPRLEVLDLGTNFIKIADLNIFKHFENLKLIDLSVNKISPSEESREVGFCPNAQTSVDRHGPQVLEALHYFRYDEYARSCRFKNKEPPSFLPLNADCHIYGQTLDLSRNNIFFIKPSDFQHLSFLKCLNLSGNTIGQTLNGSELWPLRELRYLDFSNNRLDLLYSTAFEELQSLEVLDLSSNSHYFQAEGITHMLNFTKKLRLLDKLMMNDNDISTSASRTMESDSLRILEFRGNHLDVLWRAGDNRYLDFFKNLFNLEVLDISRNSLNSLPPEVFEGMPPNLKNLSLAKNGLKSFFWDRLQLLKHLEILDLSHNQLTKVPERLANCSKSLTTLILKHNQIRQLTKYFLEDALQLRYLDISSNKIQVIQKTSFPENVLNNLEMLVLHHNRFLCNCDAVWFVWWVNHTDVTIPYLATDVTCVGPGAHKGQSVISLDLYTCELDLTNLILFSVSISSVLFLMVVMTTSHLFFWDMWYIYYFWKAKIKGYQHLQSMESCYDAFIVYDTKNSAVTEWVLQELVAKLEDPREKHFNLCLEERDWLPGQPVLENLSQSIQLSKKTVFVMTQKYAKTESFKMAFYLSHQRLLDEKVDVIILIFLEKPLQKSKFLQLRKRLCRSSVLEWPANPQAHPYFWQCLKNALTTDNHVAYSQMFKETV
Experimental: Figure Legend: Female BALB/c mice were dosed by oral gavage with Vehicle alone (0.5% aqueous methyl-cellulose) or compound formulated in Vehicle at 33 mg/kg, 100 mg/kg or 300 mg/kg. […] (FIG. 1A).
Short-term in vivo (STIV) assay: To assess compound potency in vivo against mouse TLR7, a short-term in vivo (STIV) assay was utilized. Briefly, mice were orally dosed with compounds and at various time points afterwards were injected subcutaneously with agonist R848 to stimulate TLR7. The plasma IL-6 level following R848 stimulation was then measured by ELISA to assess compound potency and duration-of-action.
Short-term in vivo (STIV) assay. Six to eight week old female BALB/c mice (Jackson Labs, Bar Harbor, Me.) were dosed by oral gavage in 200 ul volume with antagonist compounds formulated in 0.5% aqueous methyl-cellulose (Sigma, St. Louis, Mo.). At various time points afterwards, mice were injected subcutaneously (s.c.) in 100 ul volume with 15 ug R848 (Resiquimod; GLSynthesis, Worcester, Mass.) to stimulate TLR7.

Compound | IC50 (Human TLR7/8) [nM] | also measured
C[C@@H]1CN(c2ccc(C#N)c3ncccc23)C[C@H](CNc2cnccn2)O1 [ER-888896] | 50 | –
COCCNC(=O)C1CN(c2ccc(C#N)c3ncccc23)CC(C)O1 (centres unmarked) [ER-897385] | 142 | –
CCC1CCCCN1CC1CN(c2ccc(C#N)c3ncccc23)CC(C)O1 (centres unmarked) [ER-886958] | 34 | –
CC(=O)N1CCN(C2CN(CC3CN(c4ccc(C#N)c5ncccc45)CC(C)O3)C2)CC1 (centres unmarked) [ER-890120] | 5 | –
CC1CN(c2ccc(C#N)c3ncccc23)CC(COc2cnccn2)O1 (centres unmarked) [ER-894552] | 17 | –
C[C@@H]1CN(c2ccc(C#N)c3ncccc23)C[C@H](CN2CCOCC2)O1 [ER-888203] | 105 | –
CC1CN(c2ccc(C#N)c3ncccc23)CC(C(=O)NCC2CCCCN2)O1 (centres unmarked) [ER-899415] | 13 | –
CC(C(=O)NC[C@H]1CN(c2ccc(C#N)c3ncccc23)C[C@@H](C)O1)c1ccccc1 (some centres unmarked) [ER-886360] | 486 | –
Cc1nn(C)cc1S(=O)(=O)NC1CCN(C[C@H]2CN(c3ccc(C#N)c4ncccc34)C[C@@H](C)O2)CC1 [ER-894160] | 11 | –
CC1CNCC(CNC(=O)C2CN(c3ccc(C#N)c4ncccc34)CC(C)O2)O1 (centres unmarked) [ER-899366] | 1 | –
Cc1nsc(NC(=O)C2CN(c3ccc(C#N)c4ncccc34)CC(C)O2)n1 (centres unmarked) [ER-898923] | 631 | –
C[C@@H]1CN(c2ccc(C#N)c3ncccc23)C[C@H](CN2CCN(C(N)=O)CC2)O1 [ER-888330] | 154 | –
C[C@@H]1CN(c2ccc(C#N)c3ncccc23)C[C@H](CN2CC(NS(=O)(=O)c3ccc(F)cc3)C2)O1 [ER-894155] | 42 | –
C[C@@H]1CN(c2ccc(C#N)c3ncccc23)C[C@H](C(=O)N2CC3(CCCNC3)C2)O1 [ER-899021] | 5 | –
COc1cccnc1NC[C@H]1CN(c2ccc(C#N)c3ncccc23)C[C@@H](C)O1 [ER-886948] | – | % Suppression vs. Vehicle (mouse TLR7; 3 h, 33 mg/kg): 46%; % Suppression vs. Vehicle (mouse TLR7; 3 h, 100 mg/kg): 89%; % Suppression vs. Vehicle (mouse TLR7; 3 h, 300 mg/kg): 100%; % Suppression vs. Vehicle (mouse TLR7; 6 h, 33 mg/kg): 35%; % Suppression vs. Vehicle (mouse TLR7; 6 h, 100 mg/kg): 44%; % Suppression vs. Vehicle (mouse TLR7; 6 h, 300 mg/kg): 81%; % Suppression vs. Vehicle (mouse TLR7; 19 h, 33 mg/kg): 0%; % Suppression vs. Vehicle (mouse TLR7; 19 h, 100 mg/kg): 5%; % Suppression vs. Vehicle (mouse TLR7; 19 h, 300 mg/kg): 49%
